Source: patent US12421257B2, “Compositions and methods for inhibiting group II intron RNA” (YALE UNIVERSITY, priority 2018, dated 2025)
In brackets after ≈: the same amount, converted by molar mass. Entries after “also recorded” stand apart in the source; their conditions may differ.

What was measured:
[1] = tested on: ai5γ group II intron (D135 ribozyme); test: Fluorescent D135 ribozyme cleavage assay (IC50); type: biochemical, Saccharomyces cerevisiae; details: for IC50: D135 ribozyme cleavage of substrate 17/2 DL, 100 mM MgCl2, 500 mM KCl, 37° C., 10 minutes; for In vitro inhibitory activity, SAR statement (in words): relative to parent scaffold
Method: The D135 ribozyme (Su et al., 2005, Nucleic Acids Res, 33:6674-6687), fluorescently labeled oligo substrate 17/2 DL (FIG. 1A-FIG. 1D) (both at 20 nM final concentrations in 50 mM MOPS, pH 7.0, 100 mM MgCl2, 0.5M KCl), and the test compounds (final concentration of 10 μM in 50 mM MOPS, pH 7.0, 100 mM MgCl2, 0.5M KCl) were aliquoted onto black non-binding 384-well plates (Corning 3757) using the multidrop combi (ThermoFisherScientific) and pintool (V & P Scientific). The reaction mixtures were incubated at 37° C. for 45 minutes, then the reaction was quenched with 100 mM EDTA and fluorescence intensity was analyzed on a Tecan Infinite multimode plate reader (λex 520 nm, λem 560 nm, 5 nm bandwidth). Data were normalized to untreated wells and wells lacking the D135 ribozyme, and percent of inhibition was calculated using ActivityBase (IDBS). The Z′-factor was calculated as described (Zhang et al., 1999, J Biomol Screen, 4:67-73): Z′=1−3×(σp+σn)/|μp−μn|, • where μp and σn are mean value and standard deviation for the positive control (substrate only), and where μn and σn are mean value and standard deviation for the negative control (no compound). The average Z′-factor from the screen was 0.83±0.03. IC50 Measurement for the Small Molecule Inhibition of the D135 Ribozyme Cleavage Reaction.
Black 96-well plates (Corning 3695) were filled with 50 μl of solution containing 20 nM D135 ribozyme, 20 nM double-labeled substrate 17/2 DL and small molecule inhibitor in 50 mM MOPS, pH 7.0, 100 mM MgCl2 and 500 mM KCl. Small molecule inhibitors were tested at 19 different concentrations ranging from 5 nM to 1 mM. Plates were incubated at 37° C. for 10 minutes, then reaction mixtures were quenched with 100 mM EDTA and analyzed on the Synergy H1 plate reader (BioTek). Each experiment was performed in triplicate. Data were fit to a 4-parameter logistic function c+(d−c)/(1+(x/a)^b), where a is the IC50, b is the slope parameter, c is the minimum response and d is the maximum response. Data are reported as average±s.e.m

ai5γ group II intron = test: Radioanalytic self-splicing assay of SE RNA (Ki); type: biochemical, Saccharomyces cerevisiae; details: 8 mM MgCl2, 100 mM KCl, pH 7.5, 30° C.
Method: Internally labeled SE RNA (2 nM) was incubated with various concentrations of inhibitor compound under near-physiological conditions (in 50 mM MOPS, pH 7.5, 8 mM MgCl2, 100 mM KCl) at 30° C. Aliquots at different time points were quenched and analyzed on 5% denaturing polyacrylamide gel as previously described (Daniels et al., 1996, Journal of molecular biology, 256:31-49). Data were fit to a single-exponential equation to determine the first order rate constants (kobs). The latter were then plotted against the concentration of the inhibitor and fit to the equation for non-competitive inhibition to determine Ki values: kobs=kmax/(1+[I]/Ki), where kobs and kmax are the first order rate constants measured in the presence and in the absence of the inhibitor, respectively, [I] is the concentration of the inhibitor and Ki is the inhibition constant. Experiments were performed four times for API-014, three times for APY-090, Intronistat A, and Intronistat B and twice for the remaining compounds to ensure reproducibility. Data represent average±s.e.m.

C. parapsilosis = test: MIC determination against C. parapsilosis; type: cell-based, Candida parapsilosis; details: RPMI-1640, 35° C. or 37° C., turbidity after 24 and 48 hours; for MIC: Lodderomyces parapsilosis
Method: Minimal inhibitory concentrations (MICs) for C. parapsilosis were determined in a final volume of 100 μl. Fresh stock solutions of control antifungal drugs (Amphotericin B and Itraconazole) and of test compounds were prepared at 3.2 mg/ml and at 12.8 mg/ml respectively in DMSO. After placing the stock in the first well, solutions of test compounds and antifungal controls were serially diluted 1:2 with DMSO into the first […] successive wells of a 12-well row on a 96-well plate (as described above). After dilution, 2.5 μl from each of these 10 wells were transferred onto a separate 96-well plate and diluted with 122.5 μl of RPMI-1640 medium (Sigma). Wells 11 and 12 contained 2.5 μl DMSO and 122.5 μl of RPMI-1640 as a positive growth control (no compound) and sterility control (no inoculum added). A 50 μl volume was taken from each of the RPMI dilutions (wells 1-12) and transferred to the wells of a third 96-well plate (assay plate), where they were mixed with an equal volume (50 μl) of freshly prepared inoculum of C. parapsilosis in RPMI-1640 medium, set at a density to provide the 0.5×10^3 to 2.5×10^3 colony forming units per 1 mL (except for the sterility control). Sterility control was mixed with 50 μl of sterile medium.
The final concentration range of the assay was 0.25-128 μg/ml for test compounds and 0.0625-32 μg/ml for Amphotericin B and Itraconazole. The final concentration of DMSO was 1%. The assay plate was incubated at 35° C. or 37° C. and visually analyzed for turbidity after 24 and 48 hours of incubation. The lowest compound concentration at which no growth was apparent is reported as the MIC. All experiments were performed in triplicate.

HEK-293T cells = test: Cytotoxicity in HEK-293T cells (Cell Titer Glo); type: cell-based, human; details: Homo sapiens, cytotoxicity, 24 hours with compound, read-out: IC50 HEK-293
Method: HEK-293T cells were cultured in Dulbecco's Modified Eagle's Medium (DMEM) (Gibco) supplemented with 10% Fetal Bovine Serum (FBS, Gibco) and 100 U/ml of Penicillin-Streptomycin (Gibco) at 37° C. and 5% CO2. For the cytotoxicity experiments, cells were aliquoted into black 96-well plates with a clear bottom (Corning 3603) at a concentration of 10,000 cells per well. The cells were grown at 37° C., 5% CO2 for 5-6 hours, then the medium was replaced with the same medium without FBS and cells were grown at 37° C., 5% CO2 for 24 hours. Freshly prepared stock solutions of test compounds (12.8 mg/ml in DMSO) were serially diluted 1:2 with DMSO into the first 11 successive wells of a 12-well row on a 96-well plate as described above. Well 12 was used as a growth control (no compound). […] After incubation, cell viability was determined using the luminescent Cell Titer Glo cell viability assay (Promega), in which 100 μl of the assay reagent was added to each well of the assay plate. After gentle shaking for 7-10 minutes, the plates were analyzed on a Synergy H1 plate reader (BioTek). Luminescence was plotted against the compound concentration and IC50 values were determined by fitting the data to a 4-parameter logistic function c+(d−c)/(1+(x/a)^b), where a is the IC50, b is the slope parameter, c is the minimum response and d is the maximum response. Experiments were replicated to ensure reproducibility.

S. cerevisiae = test: Yeast respiration assay in S. cerevisiae (MIC in YPD / YPGE); type: cell-based, Saccharomyces cerevisiae; details: 30° C.
Method: Yeast respiration assays were conducted either in liquid YPD media (BD Bacto Yeast Extract, BD Bacto Peptone, 2% glucose) or in YPGE media (BD Bacto Yeast Extract, BD Bacto Peptone, 3% glycerol, 3% ethanol), essentially as described for the antifungal MIC assays (see below). To initiate these experiments, 100 μl of a fresh stock solution was prepared for each compound (3.2 mg/ml for Amphotericin B and 12.8 mg/ml for each test compounds) in DMSO. This concentrated stock solution was placed in the first well of 12-well row on a 96-well plate. The subsequent nine wells in this row contained 50 μl of DMSO for serial dilution. From the first well, 50 μl of the compound stock was withdrawn, transferred to the second well and mixed. This process was repeated from the second and subsequent wells, resulting in a 1:2 serial dilution of the stock into DMSO. Wells 11 and 12 contained DMSO only, to be used as no compound control and sterility control, with no inoculum added, respectively. After preparing this plate, 2.5 μl from each of the 12 wells was transferred to the wells of a separate 96-well plate, each of which contained 122.5 μl of YPD or YPGE medium, resulting in a set of serial dilutions of compound into growth media in a volume of 125 μl. Then 50 μl from each of these dilutions were transferred onto a third 96-well plate (the assay plate) and mixed with an equal volume (50 μl) of freshly prepared yeast inoculum in YPD or YPGE medium set to provide 0.5×10^3 to 2.5×10^3 colony forming units per 1 mL (wells 1-11), or YPD/YPGE alone (sterility control, well 12). The final compound concentration range of the assay was 0.25-128 μg/ml for test compounds and 0.0625-32 μg/ml for Amphotericin B. The final concentration of DMSO was 1%. Plates were incubated at 30° C. and visually analyzed for turbidity after 24 and 48 hours of incubation. The lowest compound concentration at which no growth was apparent is reported as the MIC (Table 1). All experiments were performed in triplicate.

O=C(c1cc(O)c(O)c(O)c1)c1cc2cc(Cl)cc(Cl)c2o1 [APY-083, 5-[(5,7-Dichloro-1-benzofuran-2-yl)carbonyl]benzene-1,2,3-triol]
IC50 [1]: 3.3 ± 0.3 µM
In vitro inhibitory activity, SAR statement (in words) [1]: without significant loss of function
Ki (ai5γ group II intron): 0.9 ± 0.1 µM
MIC (C. parapsilosis): 8 mg/L (≈ 23.6 µM)
IC50 (HEK-293T cells): 0.5 ± 0.1 mg/L

COc1ccc(CCNC(=O)c2cc(O)c(O)c(O)c2)cc1OC [APY-078]
IC50 [1]: 27 µM
Ki (ai5γ group II intron): 16 µM
MIC (C. parapsilosis): 64 mg/L (≈ 192 µM)
IC50 (HEK-293T cells): > 128 mg/L

O=C(CCc1ccc2ccccc2c1)c1cc(O)c(O)c(O)c1 [APY-076]
IC50 [1]: 8 µM
Ki (ai5γ group II intron): 5.4 µM
MIC (C. parapsilosis): 16 mg/L (≈ 51.9 µM)
IC50 (HEK-293T cells): 7 mg/L

CCN(CC)C(=O)c1ccc(-c2ccc3oc(C(=O)c4cc(O)c(O)c(O)c4)cc3c2)cc1 [APY-091, N,N-Diethyl-4-{2-[(3,4,5-trihydroxyphenyl)carbonyl]-1-benzofuran-5-yl}benzamide]
IC50 [1]: 2.4 ± 0.4 µM
Ki (ai5γ group II intron): 4.5 ± 0.9 µM
MIC (C. parapsilosis): 8 mg/L (≈ 18 µM)
IC50 (HEK-293T cells): 5.35 ± 0.05 mg/L

COc1ccc(CNC(=O)c2cc(O)c(O)c(O)c2)cc1OC [APY-077, N-[(3,4-Dimethoxyphenyl)methyl]-3,4,5-trihydroxybenzamide]
IC50 [1]: 30 ± 4 µM
In vitro inhibitory activity, SAR statement (in words) [1]: substantial loss of activity
Ki (ai5γ group II intron): 44 ± 11 µM
MIC (C. parapsilosis): 64 mg/L (≈ 200 µM)
IC50 (HEK-293T cells): > 32 mg/L

O=C1/C(=C/c2ccc(O)c(O)c2)Oc2cc(O)cc(O)c21 [APY-007, (Z)-2-(3,4-Dihydroxybenzylidene)-4,6-dihydroxybenzofuran-3(2H)-one]
IC50 [1]: > 100 µM
In vitro inhibitory activity, SAR statement (in words) [1]: nearly complete loss of activity; also recorded: inactivated both in vitro and in vivo
Ki (ai5γ group II intron): 156 ± 34 µM
MIC (C. parapsilosis): > 128 mg/L
IC50 (HEK-293T cells): > 128 mg/L

CN(C)CCNC(=O)c1ccc2oc(C(=O)c3cc(O)c(O)c(O)c3)cc2c1 [NED-2018, N-(2-(dimethylamino)ethyl)-2-(3,4,5-trihydroxybenzoyl)-benzofuran-5-carboxamide]
IC50 [1]: 9 ± 4 µM
Ki (ai5γ group II intron): 0.62 ± 0.03 µM
MIC (C. parapsilosis): 16 mg/L (≈ 41.6 µM)
IC50 (HEK-293T cells): > 128 mg/L

CCN(CC)CCNC(=O)c1ccc2oc(C(=O)c3cc(O)c(O)c(O)c3)cc2c1 [NED-2019, N-(2-(diethylamino)ethyl)-2-(3,4,5-trihydroxybenzoyl)-benzofuran-5-carboxamide]
IC50 [1]: 4.8 ± 0.5 µM
Ki (ai5γ group II intron): 0.49 ± 0.03 µM
MIC (C. parapsilosis): 8 mg/L (≈ 19.4 µM)
IC50 (HEK-293T cells): > 64 mg/L

O=C(c1cc(O)c(O)c(O)c1)c1cc2c(ccc3ccccc32)o1 [APY-071]
IC50 [1]: 0.3 µM
Ki (ai5γ group II intron): 0.15 µM
MIC (C. parapsilosis): 16 mg/L (≈ 50 µM)
IC50 (HEK-293T cells): 6 mg/L

C[C@@H]1[C@H](O)[C@@H](C)/C=C/C=C/C=C/C=C/C=C/C=C/C=C/[C@H](O[C@@H]2O[C@H](C)[C@@H](O)[C@H](N)[C@@H]2O)C[C@@H]2O[C@](O)(C[C@@H](O)C[C@@H](O)[C@H](O)CC[C@@H](O)C[C@@H](O)CC(=O)O[C@H]1C)C[C@H](O)[C@H]2C(=O)O [Amphotericin B, reference compound]
MIC C. parapsilosis (C. parapsilosis): 0.5 to 1 mg/L
MIC in YPD (glucose) (S. cerevisiae; YPD medium): 2 mg/L (≈ 2.16 µM)
MIC in YPGE (glycerol) (S. cerevisiae; YPGE medium): 16 mg/L (≈ 17.3 µM)

O=C(c1cc(O)c(O)c(O)c1)c1cc2cc(F)ccc2o1 [APY-070]
IC50 [1]: 4.2 µM
Ki (ai5γ group II intron): 1 µM
MIC (C. parapsilosis): 32 mg/L (≈ 111 µM)
IC50 (HEK-293T cells): > 128 mg/L

O=C(c1cc2cc(-c3ccc(CO)cc3)ccc2o1)c1ccc(B(O)O)cc1F [APY-098, [3-Fluoro-4-({5-[4-(hydroxymethyl)phenyl]-1-benzofuran-2-yl}carbonyl)phenyl]boronic acid]
IC50 [1]: > 1000 µM
In vitro inhibitory activity, SAR statement (in words) [1]: nearly complete loss of activity
Ki (ai5γ group II intron): > 1000 µM
MIC (C. parapsilosis): > 128 mg/L
IC50 (HEK-293T cells): 11 ± 3 mg/L

O=C(N/N=C/c1ccc(O)cc1O)c1cc(O)c(O)c(O)c1 [APY-022]
IC50 [1]: 5.5 µM
Ki (ai5γ group II intron): 6.5 µM
MIC (C. parapsilosis): 32 mg/L (≈ 105 µM)
IC50 (HEK-293T cells): 17.6 mg/L

C[C@H](NC(=O)c1cc(O)c(O)c(O)c1)c1cccc2ccccc12 [APY-079]
IC50 [1]: 20 µM
Ki (ai5γ group II intron): 32 µM
MIC (C. parapsilosis): 32 mg/L (≈ 99 µM)
IC50 (HEK-293T cells): 4.6 mg/L
